Test results taken from US20060293307A1, “Oxazolidinone derivatives as antimicrobials” (priority 2002, published 2006).
Read-outs that look alike come from different tables or passages of the source.

How the values were obtained:
S. aureus ATCC 25923 = assay: MIC, agar incorporation method; assay type: cell-based, Staphylococcus aureus
S. aureus SG 511 = assay: MIC, agar incorporation method; assay type: cell-based, Staphylococcus aureus
S. aureus (MRSA) 21299 = assay: MIC, agar incorporation method; assay type: cell-based, Staphylococcus aureus
S. aureus (MRSA) ST450 = assay: MIC, agar incorporation method; assay type: cell-based, Staphylococcus aureus
[1] = test system: S. aureus (MRSA 33) Cipro R; assay: MIC, agar incorporation method; assay type: cell-based, Staphylococcus aureus
S. aureus (Smith 49951) = assay: MIC, agar incorporation method; assay type: cell-based, Staphylococcus aureus
S. epidermidis 358 = assay: MIC, agar incorporation method; assay type: cell-based, Staphylococcus epidermidis
S. haemo ATCC 29970 = assay: MIC, agar incorporation method; assay type: cell-based
E. faecalis 21777 = assay: MIC, agar incorporation method; assay type: cell-based
E. faecalis SP 346 (VRE) = assay: MIC, agar incorporation method; assay type: cell-based
E. faecium 398(VRE) = assay: MIC, agar incorporation method; assay type: cell-based, Enterococcus faecium
K. oxytoca 49131 = assay: MIC, agar incorporation method; assay type: cell-based
Acinetobacter 9956 = assay: MIC, agar incorporation method; assay type: cell-based
S. pneumoniae AB-3 = assay: MIC, agar incorporation method; assay type: cell-based, Streptococcus pneumoniae
S. pneumoniae CS1221 = assay: MIC, agar incorporation method; assay type: cell-based, Streptococcus pneumoniae
S. pneumoniae AB 31 = assay: MIC, agar incorporation method; assay type: cell-based, Streptococcus pneumoniae
S. pneumoniae AB 14 = assay: MIC, agar incorporation method; assay type: cell-based, Streptococcus pneumoniae
S. pneumoniae AB 17 = assay: MIC, agar incorporation method; assay type: cell-based, Streptococcus pneumoniae
S. pneumoniae AB 23 = assay: MIC, agar incorporation method; assay type: cell-based, Streptococcus pneumoniae
S. pneumoniae CS 1687 = assay: MIC, agar incorporation method; assay type: cell-based, Streptococcus pneumoniae
S. pneumoniae ATCC 49619 = assay: MIC, agar incorporation method; assay type: cell-based, Streptococcus pneumoniae
S. pyogenes 19615 = assay: MIC, agar incorporation method; assay type: cell-based, Streptococcus pyogenes
S. pyogenes 25147 = assay: MIC, agar incorporation method; assay type: cell-based, Streptococcus pyogenes
S. pneumoniae 1256 = assay: MIC, agar incorporation method; assay type: cell-based, Streptococcus pneumoniae
H. influenzae ATCC 49247 = assay: MIC against Haemophilus strains; assay type: cell-based; details: s. No. 2, H. influenzae ATCC 49247
H. influenzae βIac = assay: MIC against Haemophilus strains; assay type: cell-based; details: s. No. 3, H. influenzae βIac
M. tuberculosis M-66 = assay: MIC against M. tuberculosis strains, agar dilution; assay type: cell-based, Mycobacterium tuberculosis; details: Mycobacterium tuberculosis, M66, S. No. 08 Mt-, Middle Brook 7H10 + OADC, 37° C., 14-21 days, read-out: MIC
M. tuberculosis V-591 = assay: MIC against M. tuberculosis strains, agar dilution; assay type: cell-based, Mycobacterium tuberculosis; details: Mycobacterium tuberculosis, V591, S. No. 13 Mt-, Middle Brook 7H10 + OADC, 37° C., 14-21 days, read-out: MIC
M. tuberculosis M-149 = assay: MIC against M. tuberculosis strains, agar dilution; assay type: cell-based, Mycobacterium tuberculosis; details: Mycobacterium tuberculosis, M149, S. No. 15 Mt-, Middle Brook 7H10 + OADC, 37° C., 14-21 days, read-out: MIC
M. tuberculosis PC = assay: MIC against M. tuberculosis strains, agar dilution; assay type: cell-based, Mycobacterium tuberculosis; details: Mycobacterium tuberculosis, S. No. 18 Mt-, Middle Brook 7H10 + OADC, 37° C., 14-21 days, read-out: MIC
[2] = Haemophilus influenzae, ATCC49247, read-out: MIC
[3] = Haemophilus influenzae, read-out: MIC

Measured: MIC

CC(=O)NC[C@H]1CN(c2ccc(N3CCOCC3)c(F)c2)C(=O)O1 [Linezolid, reference compound]
1 µg/mL: S. aureus (MRSA) 21299; Staphylococcus aureus, MRSA | S. aureus (MRSA) ST450; Staphylococcus aureus, MRSA | [1]; Staphylococcus aureus, MRSA | S. aureus (Smith 49951); Staphylococcus aureus | S. epidermidis 358; Staphylococcus epidermidis, 358 | E. faecium 398(VRE); Enterococcus faecium, VRE | S. pneumoniae AB 31; Streptococcus pneumoniae, AB31 | S. pneumoniae AB 14; Streptococcus pneumoniae, AB14 | S. pneumoniae AB 17; Streptococcus pneumoniae, AB17 | S. pneumoniae AB 23; Streptococcus pneumoniae, AB23 | S. pneumoniae CS 1687; Streptococcus pneumoniae, CS1687 | S. pneumoniae ATCC 49619; Streptococcus pneumoniae, ATCC49619 | S. pyogenes 19615; Streptococcus pyogenes, 19615 | S. pyogenes 25147; Streptococcus pyogenes, 25147 | S. pneumoniae 1256; Streptococcus pneumoniae, 1256
> 16 µg/mL: K. oxytoca 49131; Klebsiella oxytoca, 49131 | Acinetobacter 9956; Acinetobacter, 9956
32 µg/mL: M. tuberculosis M-149
0.5 µg/mL: M. tuberculosis PC
8 µg/mL: H. influenzae ATCC 49247; [2] | H. influenzae βIac; [3]
> 32 µg/mL: M. tuberculosis M-66 | M. tuberculosis V-591
< 0.5 µg/mL: S. haemo ATCC 29970
2 µg/mL: S. aureus ATCC 25923; Staphylococcus aureus, ATCC25923 | S. aureus SG 511; Staphylococcus aureus, SG511 | E. faecalis 21777; Enterococcus faecalis, 21777 | E. faecalis SP 346 (VRE); Enterococcus faecalis, VRE
0.25 µg/mL: S. pneumoniae AB-3; Streptococcus pneumoniae, AB3 | S. pneumoniae CS1221; Streptococcus pneumoniae, CS1221

(S)—N-[[3-[-3-Fluoro-4-[(5-nitro-2-thienyl)-3-methyl-1-piperazinyl]phenyl]-2-oxo-5-oxazolidinyl]methyl]acetamide [Compound No. 10]
>16 µg/mL: H. influenzae ATCC 49247 | H. influenzae βIac
0.5 µg/mL: S. aureus SG 511; S. No. 3, S. aureus SG 511 | S. epidermidis 358; S. No. 14, S. epidermidis 358 | E. faecium 398(VRE); S. No. 22, E. faecium 398(VRE) | S. pneumoniae AB-3; S. No. 32, S. pneumoniae AB-3 | S. pneumoniae CS1221; S. No. 34, S. pneumoniae CS1221 | S. pneumoniae AB 31; S. No. 36, S. pneumoniae AB 31 | S. pneumoniae AB 14; S. No. 37, S. pneumoniae AB 14 | S. pneumoniae AB 17; S. No. 40, S. pneumoniae AB 17 | S. pneumoniae AB 23; S. No. 43, S. pneumoniae AB 23 | S. pneumoniae CS 1687; S. No. 44, S. pneumoniae CS 1687 | S. pneumoniae ATCC 49619; S. No. 48, S. pneumoniae ATCC 49619 | S. pyogenes 19615; S. No. 51, S. pyogenes 19615 | S. pyogenes 25147; S. No. 52, S. pyogenes 25147
>8 µg/mL: K. oxytoca 49131; S. No. 27, K. oxytoca 49131 | Acinetobacter 9956; S. No. 30, Acinetobacter 9956
0.25 µg/mL: S. haemo ATCC 29970; S. No. 15, S. haemo ATCC 29970 | S. pneumoniae 1256; S. No. 56, S. pneumoniae 1256
1 µg/mL: S. aureus ATCC 25923; S. No. 1, organism cell empty | S. aureus (MRSA) 21299; S. No. 5, S. aureus (MRSA) 21299 | S. aureus (MRSA) ST450; S. No. 6, S. aureus (MRSA) ST450 | [1]; S. No. 7, S. aureus (MRSA 33) Cipro R | S. aureus (Smith 49951); S. No. 9, S. aureus (Smith 49951) | E. faecalis 21777; S. No. 18, E. faecalis 21777 | E. faecalis SP 346 (VRE); S. No. 20, E. faecalis SP 346 (VRE)

CC(=O)NC[C@H]1CN(c2ccc(N3CCN(c4ccc(C=O)s4)CC3)c(F)c2)C(=O)O1 [Compound No. 2, (S)—N-[[3-[3-Fluoro-4-[4-(5-formyl-2-thienyl)-1-piperazinyl]phenyl]-2-oxo-5-oxazolidinyl]methyl]acetamide]
0.5 µg/mL: S. aureus SG 511; Staphylococcus aureus, SG511, S. No. 3, S. aureus SG 511, read-out: MIC | S. aureus (MRSA) 21299; Staphylococcus aureus, S. No. 5, S. aureus (MRSA) 21299, read-out: MIC | [1]; Staphylococcus aureus, S. No. 7, S. aureus (MRSA 33) Cipro R, read-out: MIC | S. aureus (Smith 49951); Staphylococcus aureus, S. No. 9, S. aureus (Smith 49951), read-out: MIC | S. epidermidis 358; Staphylococcus epidermidis, S. No. 14, S. epidermidis 358, read-out: MIC | S. haemo ATCC 29970; S. No. 15, S. haemo ATCC 29970, read-out: MIC | E. faecalis 21777; Enterococcus faecalis, S. No. 18, E. faecalis 21777, read-out: MIC | E. faecalis SP 346 (VRE); Enterococcus faecalis, S. No. 20, E. faecalis SP 346 (VRE), read-out: MIC | E. faecium 398(VRE); Enterococcus faecium, S. No. 22, E. faecium 398(VRE), read-out: MIC | S. pneumoniae CS1221; Streptococcus pneumoniae, S. No. 34, S. pneumoniae CS1221, read-out: MIC | S. pneumoniae AB 31; Streptococcus pneumoniae, AB31, S. No. 36, S. pneumoniae AB 31, read-out: MIC | S. pneumoniae AB 17; Streptococcus pneumoniae, AB17, S. No. 40, S. pneumoniae AB 17, read-out: MIC | S. pneumoniae AB 23; Streptococcus pneumoniae, AB23, S. No. 43, S. pneumoniae AB 23, read-out: MIC | S. pneumoniae CS 1687; Streptococcus pneumoniae, CS1687, S. No. 44, S. pneumoniae CS 1687, read-out: MIC | S. pneumoniae ATCC 49619; Streptococcus pneumoniae, ATCC49619, S. No. 48, S. pneumoniae ATCC 49619, read-out: MIC | S. pyogenes 19615; Streptococcus pyogenes, S. No. 51, S. pyogenes 19615, read-out: MIC | S. pyogenes 25147; Streptococcus pyogenes, S. No. 52, S. pyogenes 25147, read-out: MIC
> 16 µg/mL: K. oxytoca 49131; Klebsiella oxytoca, S. No. 27, K. oxytoca 49131, read-out: MIC | Acinetobacter 9956; S. No. 30, Acinetobacter 9956, read-out: MIC
1 µg/mL: S. aureus ATCC 25923; Staphylococcus aureus, ATCC25923, S. No. 1, organism cell empty, read-out: MIC | S. aureus (MRSA) ST450; Staphylococcus aureus, S. No. 6, S. aureus (MRSA) ST450, read-out: MIC
16 µg/mL: H. influenzae ATCC 49247; [2] | H. influenzae βIac; [3]
< 0.25 µg/mL: S. pneumoniae AB-3; Streptococcus pneumoniae, AB3, S. No. 32, S. pneumoniae AB-3, read-out: MIC | S. pneumoniae AB 14; Streptococcus pneumoniae, AB14, S. No. 37, S. pneumoniae AB 14, read-out: MIC | S. pneumoniae 1256; Streptococcus pneumoniae, S. No. 56, S. pneumoniae 1256, read-out: MIC
